Measurements taken from patent publication US4939178A, “Use of avarol for the control of adult T-cell leukemia/lymphoma” (Merz + Co. GmbH & Co., priority 1986, dated 1990).
Like-named read-outs stand apart in the source and are kept apart here.

Key:
[1] = test system: male NMRI mice immunized with SRBC; assay: Jerne plaque test, in vivo immunoglobulin production; details: avarol 30 mg/kg i.p., from 0 to +4
Protocol: The plaque test of Jerne and Nordin (Science 140: 405-406, 1963) was used with the modification given by Cunningham and Szenberg (Immunolog. 14: 599-601; 1968). Briefly, 8 male NMRI mice per group (20-22 g) were immunized on day 0 by i.p. injection of 5×10^8 SRBC in 0.5 ml saline. Treatment with avarol was done i.p. either from day 0 to day +4 or from day -4 to day 0. One hour after the last drug administration, the animals were killed by a blow on the head and bled. The spleens were removed and a single cell suspension was prepared by teasing the pooled spleens through a 120μm mesh sieve. After lysing the erythrocytes by 0.15M NH4 Cl, the cells were washed twice in Hank's balanced salt solution containing 29 ml of 7.5% NaHCO3 and 10 ml of 1M HEPES buffer solution per one liter. The cells were resuspended in 2 ml per spleen. Six Cunningham chambers per group were filled with a mixture of 0.5 ml of a suitable dilution of spleen cells (generally 1:100), 0.5 ml of a suspension of SRBC (10^9 /ml) and 125 μl of normal guinea pig complement. After 90-120 min of incubation at 37° C., the number of plaques was counted. Plaques per spleen or per 10^6 spleen cells were calculated.
The pooled blood of 8 mice was centrifuged to obtain the serum. IgM and IgG titers were measured with the mercaptoethanol method (Hudson, L. and Hay, F. C. Practical Immunology, Blackwell Sci., Oxford; 1983).

male NMRI mice [2] = assay: Delayed-type hypersensitivity to sheep red blood cells; assay type: in vivo
Protocol: Reaction to sheep red blood cells (SRBC): DTH was produced according to the method of Lagrange et al. (J. Exp. Med. 139: 528-542; 1974) and Liew (Eur. J. Immunol. 7, 714-718; 1977). Male NMRI mice (20-23 g, 10 animals/group) were immunized with 10^8 SRBC/40 μl into one foot pad (day 0). Four days later 10^9 SRBC/40 μl were injected into the other foot pad. After 24 hours, paw size was measured with a dial gauge caliper Odi-Test OOT (H. C. Kroeplin, Schluchtern, Germany). Avarol (in 0.15% [w/v] methylcellulose) was administered daily i.p. either from day -2 to +1 or from day +2 to +4. The level of DTH was expressed as foot pad increase, determined after 24 hrs; and it is given in mm. Non-treated groups were injected i.p. with methylcellulose only. Treated groups were compared with the controls using the U-test of Wilcoxon et al. (Sachs, L. Angewandte Statistik, Springer-Verlag, Berlin; 1984).

ATL-3-I cells = assay: Cell growth of ATL-3-I cells; assay type: cell-based; details: two days, control 13.2
Text: (§1) For this, the MT-2, ATL-3I, and ATL-1K cell lines were employed. These cell lines are described by Hashino, H., et al., Proc. Nat. Academy Science U.S.A. 80, 6061-6065 (1983) and by Miyoshi, J., et al., Nature 294, 770-771 (1981). All these cell lines contain the HTLV-provirus, and among these cell lines primarily the lines MT-2 and ATL-3I express also the retrovirus antigens and also produce the HTLV-I virus.
(§2) Cell culture conditions were employed according to those described by H. Hoshino, et al., Proc. Nat. Acad. Sci. (U.S.A.) 80, 1983, 7337-7341.
(§3) ATL-3-I, MT-2, and ATL-1K cells were seeded into Petri dishes in a concentration of 3×10^3 cells/cm^2 in a culture medium containing 20% of calf serum. After incubation for two days, the density of the cells amounted to: […]: 13.2×10^3 cells/cm^2; MT-2: 12.4×10^3 cells/cm^2; ATL-1K: 15.7×10^3 cells/cm^2. These values formed the control values.
(§4) Thereupon samples of these cells were treated for two days with different concentrations of avarol.

[3] = test system: peripheral human lymphocytes (buffy coat cells); assay: Interferon-gamma production by lymphocytes (EIA); assay type: cell-based
Protocol: Effector cells: Buffy coat cells were prepared by centrifugation on Ficoll-Plaque gradient and washed two times. Subsequently the cells were divided and adjusted to a concentration of 5×1,000,000 cells/ml.
Interferon measurement: Levels of Interferon were defined by an Enzymeimmunoassay (EIA). Interferon gamma: 96 well flat bottom plates (Greiner, Nuertingen) were coated with a monoclonal antibody recognizing Interferon gamma. 200 μl of the supernatant sample were added per well together with Interferon gamma-peroxidase coupled (50 μl), consisting of the same antibody as used for coating. […] The enzymatic reaction is completed by a preparation containing hydrogen peroxide substrate. The reaction is stopped within 15 minutes by 100 μl of sulfuric acid per well. The amount of Interferon is defined by comparing the extinction of the test sample with a standard curve produced by known values of Interferon gamma.

ATL-1K cells = assay: Cell growth of ATL-1K cells; assay type: cell-based; details: two days, control 15.7
Text: as §1, §2, §3, §4

MT-2 cells = assay: Cell growth of MT-2 cells; assay type: cell-based; details: two days, control 12.4
Text: as §1, §2, §3, §4

[4] = Organ distribution of tritium labelled avarol; assay type: in vivo, rats
Protocol: The organ distribution was determined by the same method using tritium labelled Avarol. The determinations were performed 24 hours after termination of the i.v. application. These concentrations were determined on the basis of radioactivity. Moreover, the chemical nature of the radioactive product was identified by high-pressure liquid chromatography and found to consist of over 90% of Avarol. In addition, the biological activity of the compound in the blood was determined after extraction with ethyl acetate and estimated in the […] cell system in vitro (Muller, W. E. G. et al.; Comp. Biochem. Physiol. 80C, 47-52; 1985). Using this system, the biological activity of the compound, present in the blood, was determined and converted on a gram basis. Using this approach the concentration in the blood was only 5-15% lower than that determined on the basis of radioactivity.

[5] = test system: retroviral (HTLV-I) antigen in ATL-3-I cells; assay: microbe, parasite or virus in culture; assay type: cell-based; details: Primate T-lymphotropic virus 1, read-out: Expression of retroviral antigen (in %)
male NMRI mice [6] = assay: Contact allergy to oxazolone; assay type: in vivo; details: 3-30 mg/kg i.p., day -1 to +2 or day +6 to +8; P>0.05
[7] = test system: T-cell derived leukemia cells; details: cited from earlier work
[8] = assay type: in vivo, rats
male Sprague-Dawley rats = assay: Antibody mediated hypersensitivity, modified active Arthus reaction; assay type: in vivo
Protocol: A modified active Arthus reaction was performed as described (Titus et al., J. Immunol. Methods 45: 65-78; 1981). Male Sprague-Dawley rats (8/group) weighing 120 g were immunized by injecting into the tail base 0.5 ml of a suspension of 4.4 ml pertussis vaccine (Behringwerke, Marburg) in 65.6 ml of 0.9% saline plus 0.7 g ovalbumin (3×cryst.) in 100 ml paraffin oil. Three weeks after immunization 0.1 ml of 0.03% ovalbumin solution were injected into a hind paw and the paw volume was measured with a water plethysmometer (Rhema) immediately thereafter and again after 4 hours. The animals were treated i.p. with daily doses from 3-30 mg/kg of avarol (in 0.15% [w/v] methylcellulose) according to the following schedules: (i) day -1 to +2, (ii) day +18 to +21 or (iii) twice 24 hours and 30 minutes before challenge (day 0 represents the day of immunization). The controls received methylcellulose only. Values are compared with a control group using Student's-t-test (L. Sachs. Angewandte Statistik, Springer-Verlag, Berlin; 1984).

[9] = test system: macrophage-containing and macrophage-depleted lymphocyte cultures; assay: [3H]-dThd incorporation in lymphocyte cultures of pretreated mice; details: pretreatment of mice with avarol, lymphocyte cultures in vitro

Structure (SMILES): CC1=CCC[C@H]2[C@](C)(Cc3cc(O)ccc3O)[C@@H](C)CC[C@]12C [Avarol, 2-[(1R)-1,2,3,4,4a,7,8,8aα-octahydro-1β,2β,4aβ,5-tetramethyl-1-naphthylmethyl]-1,4-benzenediol]
- Cell/spleen [1]: 1.2e+08 cells/spleen
- influence on DTH to SRBC (male NMRI mice [2]; i.p. day +2 to +4 after immunization, doses higher than 10 mg/kg): weak but significant immunosuppressive effect
- influence on DTH to SRBC (male NMRI mice [2]; i.p. day -2 to +1, up to daily doses of 30 mg/kg): no significant immunosuppressive influence
- Cell concentration ATL-3-I (ATL-3-I cells; drug 1.0 μg/ml): 9.4 × 10^3 /cm^2
- Cell concentration ATL-3-I (ATL-3-I cells; drug 5.0 μg/ml): 8.7 × 10^3 /cm^2
- Titer of Interferon-gamma produced by lymphocytes ([3]; avarol 1.0 μg/ml, 48 hours): 52 Units/ml of supernatant
- optimal dose for Interferon gamma induction in vitro ([3]; buffy coat cells): 0.5 µg/mL
- Cell concentration ATL-1K (ATL-1K cells; drug 1.0 μg/ml): 13.4 × 10^3 /cm^2
- Cell concentration ATL-1K (ATL-1K cells; drug 5.0 μg/ml): 10.3 × 10^3 /cm^2
- Cell concentration MT-2 (MT-2 cells; drug 1.0 μg/ml): 8.1 × 10^3 /cm^2
- Cell concentration MT-2 (MT-2 cells; drug 5.0 μg/ml): 7.9 × 10^3 /cm^2
- Concentration of Avarol, Skin ([4]; 10 mg/kg i.v., 24 hours): 0.6 microgram of Avarol per gram o
- Concentration of Avarol, Brain ([4]; 20 mg/kg i.v., 24 hours): 0.64 microgram of Avarol per gram o
- blood-brain barrier penetration ([4]; rats): penetrates the blood-brain barrier
- activity at 1 µg/mL [5]: 82%
- activity at 5 µg/mL [5]: 74%
- influence on DTH oxazolone (male NMRI mice [6]): did not influence significantly
- lymphoma cell growth inhibited by 50% [7]: 0.3 to 0.4 µg/mL
- Percentage of Radioactivity in Blood ([8]; 10 mg/kg i.v., 1 hour): 96%
- Percentage of Radioactivity in Blood ([8]; 10 mg/kg i.v., 6 hours): 88%
- Percentage of Radioactivity in Blood ([8]; 10 mg/kg i.v., 12 hours): 72%
- Percentage of Radioactivity in Blood ([8]; 10 mg/kg i.v., 24 hours): 43%
- Percentage of Radioactivity in Blood ([8]; 10 mg/kg i.v., 48 hours): 26%
- Percentage of Radioactivity in Blood ([8]; 20 mg/kg i.v., 1 hour): 92%
- Percentage of Radioactivity in Blood ([8]; 20 mg/kg i.v., 12 hours): 75%
- Percentage of Radioactivity in Blood ([8]; 20 mg/kg i.v., 24 hours): 39%
- Percentage of Radioactivity in Blood ([8]; 20 mg/kg i.v., 48 hours): 21%
- Percentage of Radioactivity in Blood ([8]; rat, in vivo): 83
- suppression of the Arthus reaction (male Sprague-Dawley rats; 30 mg/kg, 24 hours and 30 minutes before challenge, P>0.05): not significant
- suppression of the Arthus reaction (male Sprague-Dawley rats; 3-30 mg/kg i.p., day -1 to +2, day +18 to +21 or immediately before challenge): no significant suppression
- [3H]-dThd incorporation rate [9]: higher
